Experimental findings from PubChem BioAssay AID1259407 (Chemical Carcinogenesis Research Information System (CCRIS), 2018) are described below.

The test system of the series is CCRIS mutagenicity, Ames/micronucleus/aberration tests. Nature of the series: CCRIS mutagenicity studies.
The mark [1] stands for this setting: Test System: AMES SALMONELLA TYPHIMURIUM, Strain/Indicator: TA98, Metabolic Activation: NONE, Method: STANDARD PLATE.
[2] abbreviates: Test System: AMES SALMONELLA TYPHIMURIUM, Strain/Indicator: TA98, Metabolic Activation: RAT, LIVER, S-9, AROCLOR 1254, Method: STANDARD PLATE.
The mark [3] stands for this setting: Test System: AMES SALMONELLA TYPHIMURIUM, Strain/Indicator: TA100, Metabolic Activation: NONE, Method: STANDARD PLATE.
Setting [4] is: Test System: AMES SALMONELLA TYPHIMURIUM, Strain/Indicator: TA98, Metabolic Activation: NONE, Method: PREINCUBATION
The mark [5] stands for this setting: Test System: AMES SALMONELLA TYPHIMURIUM, Strain/Indicator: TA100, Metabolic Activation: NONE, Method: PREINCUBATION

Molecules are shown by their SMILES. Calls of active or inactive are those of the source. No rule for the calls is given here.

As to `CC(N)=S`, the mutagenic call was “inactive; negative” (Test System: AMES SALMONELLA TYPHIMURIUM, Strain/Indicator: TA102, Metabolic Activation: RAT LIVER S-9, PHENOBARBITAL AND 5,6-BENZOFLAVONE, Method: STANDARD PLATE); “inactive; negative” (Test System: AMES SALMONELLA TYPHIMURIUM, Strain/Indicator: TA2638, Metabolic Activation: RAT LIVER S-9, PHENOBARBITAL AND 5,6-BENZOFLAVONE, Method: STANDARD PLATE); “inactive; negative” (Test System: E. COLI, Strain/Indicator: WP2 (PKM101), Metabolic Activation: RAT LIVER S-9, PHENOBARBITAL AND 5,6-BENZOFLAVONE, Method: STANDARD PLATE); “inactive; negative” (Test System: E. COLI, Strain/Indicator: WP2 UVRA (PKM101), Metabolic Activation: RAT LIVER S-9, PHENOBARBITAL AND 5,6-BENZOFLAVONE, Method: STANDARD PLATE); “inactive; negative” (Test System: E. COLI, Strain/Indicator: WP2 UVRA, Metabolic Activation: HAMSTER, LIVER, S-9, AROCLOR 1254, Method: STANDARD PLATE); “inactive; negative” (Test System: E. COLI, Strain/Indicator: WP2 UVRA, Metabolic Activation: HAMSTER, LIVER, S-9, Method: STANDARD PLATE). Moreover, the mutagenic call (Test System: E. COLI, Strain/Indicator: WP2 UVRA, Metabolic Activation: MOUSE, LIVER, S-9, AROCLOR 1254, Method: STANDARD PLATE) was “inactive; negative”; the mutagenic call (Test System: E. COLI, Strain/Indicator: WP2 UVRA, Metabolic Activation: MOUSE, LIVER, S-9, Method: STANDARD PLATE) is “inactive; negative”; the mutagenic call (Test System: E. COLI, Strain/Indicator: WP2 UVRA, Metabolic Activation: NONE, Method: STANDARD PLATE) is “inactive; negative”; the mutagenic call (Test System: E. COLI, Strain/Indicator: WP2 UVRA, Metabolic Activation: RAT, LIVER, S-9, AROCLOR 1254, Method: STANDARD PLATE) is “inactive; negative”; the mutagenic call (Test System: E. COLI, Strain/Indicator: WP2 UVRA, Metabolic Activation: RAT, LIVER, S-9, Method: STANDARD PLATE) was “inactive; negative”; the mutagenic call (Test System: MOUSE LYMPHOMA, Strain/Indicator: L5178Y (TK+/TK-), Metabolic Activation: NONE, Method: SUSPENSION/PLATE) was “active; positive”. Further, the mutagenic call was “active; positive” (Test System: MOUSE LYMPHOMA, Strain/Indicator: L5178Y (TK+/TK-), Metabolic Activation: RAT, LIVER, S-9, AROCLOR 1254, Method: SUSPENSION/PLATE) and “inactive; negative” (Test System: MOUSE LYMPHOMA, Strain/Indicator: L5178Y (TK+/TK-), Metabolic Activation: RAT, LIVER, S-9, Method: SUSPENSION/PLATE).

For the compound `Clc1cccnc1Cl`, the mutagenic call is, setting by setting: (Test System: AMES SALMONELLA TYPHIMURIUM, Strain/Indicator: TA97, Metabolic Activation: NONE, Method: STANDARD PLATE) “inactive; negative”; (Test System: AMES SALMONELLA TYPHIMURIUM, Strain/Indicator: TA97, Metabolic Activation: RAT, LIVER, S-9, AROCLOR 1254, Method: STANDARD PLATE) “active; positive”; under setting [1], “inactive; negative”; under setting [2], “inactive; negative”; under setting [3], “inactive; negative”; (Test System: AMES SALMONELLA TYPHIMURIUM, Strain/Indicator: TA102, Metabolic Activation: NONE, Method: STANDARD PLATE) “inactive; negative”. Moreover, the mutagenic call (Test System: AMES SALMONELLA TYPHIMURIUM, Strain/Indicator: TA102, Metabolic Activation: RAT, LIVER, S-9, AROCLOR 1254, Method: STANDARD PLATE) was “inactive; negative”.

For the compound `COc1cc(N=Nc2ccc(N)cc2)c(C)cc1N=Nc1c(S(=O)(=O)O)cc2ccc(N)cc2c1O`, the mutagenic call is “inactive; negative” under setting [1]; “active; positive” under setting [2]; “inactive; negative” under setting [3]; “active; positive” (Test System: AMES SALMONELLA TYPHIMURIUM, Strain/Indicator: TA100, Metabolic Activation: RAT, LIVER, S-9, AROCLOR 1254, Method: STANDARD PLATE); “inactive; negative” (Test System: AMES SALMONELLA TYPHIMURIUM, Strain/Indicator: TA1538, Metabolic Activation: NONE, Method: STANDARD PLATE); “active; positive” (Test System: AMES SALMONELLA TYPHIMURIUM, Strain/Indicator: TA1538, Metabolic Activation: RAT, LIVER, S-9, AROCLOR 1254, Method: STANDARD PLATE).

As for `CC(C)Sc1cc(Cc2ccc(N)c(SC(C)C)c2)ccc1N`, the mutagenic call was “inactive; negative” under setting [4]; “active; positive” (Test System: AMES SALMONELLA TYPHIMURIUM, Strain/Indicator: TA98, Metabolic Activation: RAT, LIVER, S-9, PCB, Method: PREINCUBATION); “inactive; negative” under setting [5]; “active; positive” (Test System: AMES SALMONELLA TYPHIMURIUM, Strain/Indicator: TA100, Metabolic Activation: RAT, LIVER, S-9, PCB, Method: PREINCUBATION).

Turning to `CC(N)Cc1ccccc1` (stereo unspecified), the mutagenic call was “inactive; negative” (Test System: AMES SALMONELLA TYPHIMURIUM, Strain/Indicator: TA98, Metabolic Activation: HAMSTER, LIVER, S-9, AROCLOR 1254 (4%, 10% OR 20%), Method: PREINCUBATION); “inactive; negative” (Test System: AMES SALMONELLA TYPHIMURIUM, Strain/Indicator: TA98, Metabolic Activation: HAMSTER, LIVER, S-9, AROCLOR 1254 (4, 10 OR 20%), Method: PREINCUBATION); “inactive; negative” under setting [4]; “inactive; negative” (Test System: AMES SALMONELLA TYPHIMURIUM, Strain/Indicator: TA98, Metabolic Activation: RAT, LIVER, S-9, AROCLOR 1254 (10%), Method: PREINCUBATION); “inactive; negative” (Test System: AMES SALMONELLA TYPHIMURIUM, Strain/Indicator: TA100, Metabolic Activation: HAMSTER, LIVER, S-9, AROCLOR 1254 (10%), Method: PREINCUBATION); “inactive; negative” under setting [5]. The mutagenic call is, setting by setting: (Test System: AMES SALMONELLA TYPHIMURIUM, Strain/Indicator: TA100, Metabolic Activation: RAT, LIVER, S-9, AROCLOR 1254 (10%), Method: PREINCUBATION) “inactive; negative”; (Test System: AMES SALMONELLA TYPHIMURIUM, Strain/Indicator: TA1535, Metabolic Activation: HAMSTER, LIVER, S-9, AROCLOR 1254 (10%), Method: PREINCUBATION) “inactive; negative”; (Test System: AMES SALMONELLA TYPHIMURIUM, Strain/Indicator: TA1535, Metabolic Activation: NONE, Method: PREINCUBATION) “inactive; negative”; (Test System: AMES SALMONELLA TYPHIMURIUM, Strain/Indicator: TA1535, Metabolic Activation: RAT, LIVER, S-9, AROCLOR 1254 (10%), Method: PREINCUBATION) “inactive; negative”; (Test System: AMES SALMONELLA TYPHIMURIUM, Strain/Indicator: TA1537, Metabolic Activation: HAMSTER, LIVER, S-9, AROCLOR 1254 (10%), Method: PREINCUBATION) “inactive; negative”; (Test System: AMES SALMONELLA TYPHIMURIUM, Strain/Indicator: TA1537, Metabolic Activation: NONE, Method: PREINCUBATION) “inactive; negative”. Besides, under “Test System: AMES SALMONELLA TYPHIMURIUM, Strain/Indicator: TA1537, Metabolic Activation: RAT, LIVER, S-9, AROCLOR 1254 (10%), Method: PREINCUBATION”, the mutagenic call is “inactive; negative”.

As for `COc1c(C)c2c(c(O)c1C/C=C(\C)CCC(=O)O)C(=O)OC2`, the mutagenic call (Test System: AMES SALMONELLA TYPHIMURIUM, Strain/Indicator: TA98, Metabolic Activation: RAT, LIVER, MICROSOMES, PHENOBARBITAL, Method: STANDARD PLATE) is “inactive; negative” and the mutagenic call (Test System: AMES SALMONELLA TYPHIMURIUM, Strain/Indicator: TA100, Metabolic Activation: RAT, LIVER, MICROSOMES, PHENOBARBITAL, Method: STANDARD PLATE) is “inactive; negative”.
